Test results: patent US20130096097A1, “PHARMACEUTICAL MULTIMERIC PARTICLES, AND MANUFACTURING METHOD FOR SAME” (JAPAN SCIENCE AND TECHNOLOGY AGENCY, priority 2010, published 2013)

What was measured:
[1] = cited from earlier work
[2] = Particle size of dimer nanoparticles in aqueous dispersion made by reprecipitation; format: physicochemical; details: 5 mM DMSO solution injected into water at room temperature, final concentration 0.05 mM
Protocol: (§1) Dimer of SN-38 and succinic acid was weighed out to be 5 mM, and dissolved in DMSO 150 μl. Using water as poor solvent, 100 μl of the DMSO solution was injected into water 10 ml with syringe at room temperature, thus aqueous dispersion solution of dimer nanoparticles was prepared. Final concentration of the aqueous dispersion solution was 0.05 mM. The particle size was 50 nm (FIG. 1).
as §1, with “tetramethylene diisocyanate” for “succinic acid”, “in” for “in DMSO”, “μl of DMSO.” for “μl.”, “2).” for “1).”
as §1, with “of betamethasone valerate” for “of SN-38”, “in” for “in DMSO”, “150 μl of DMSO.” for “150 μl.”, “was 150” for “was 50”, “(FIG. 2).” for “(FIG. 1).”

[3] = tested on: Human liver cancer cell lines HepG2; assay: In vitro anticancer activity, cell viability by Cell Counting Kit-8; format: cell-based; details: for anticancer activity against HepG2 (cell viability): 0.15625-10 μM in terms of SN-38 monomer, 48 hours, FIG. 3
Protocol: Human liver cancer cell lines HepG2 was seeded on 96-well plate in 2×10^4 cells/well. Next day, irinotecan, SN-38 bulk crystal, SN-38 diester dimer nanoparticle, and SN-38 diisocyanate dimer nanoparticle were added to the HepG2 cell culture in an amount to be 0.15625, 0.3125, 0.625, 1.25, 2.5, 5 or 10 μM in terms of SN-38 monomer. After cultivating for 48 hours, the cell viability was measured by a colorimetric method using Cell Counting Kit-8 (manufactured by DOJINDO) and microplate reader (manufactured by BIO-RAD). […] In addition, it became obvious that when SN-38 was dimerized via ester bond or urethane bond, or further nanoparticulated, the anticancer activity thereof can be retained (FIG. 3).
Further, two kinds of aqueous dispersion solution of SN-38 dimer nanoparticles were left at room temperature for about one week, thus prepared aging sample.
In FIG. 3 and FIG. 4, there was no difference in the anticancer activity against HepG2 between the binding modes included in the SN-38 dimer nanoparticles, namely, ester bond and urethane bond. That is, both bonds are expected to be decomposed at about the same speed in the solution, and SN-38 monomers are formed. To confirm this, SN-38 is dimerized with low degradable ether bond, further subjected to aging, then studied the anticancer activity against HepG2. The treatment concentration at this time was made 0.1, 1, 10 μM in terms of SN-38.

SMILES | particle size [2] [nm] | anticancer activity against HepG2 (cell viability) [3] | further results
CC[C@@]1(O)C(=O)OCc2c1cc1n(c2=O)Cc2cc3ccccc3nc2-1 [Camptothecin] |  |  | water-solubility [1]: extremely insoluble in water
CCc1c2c(nc3ccc(OC(=O)CCC(=O)Oc4ccc5nc6c(c(CC)c5c4)Cn4c-6cc5c(c4=O)COC(=O)C5(O)CC)cc13)-c1cc3c(c(=O)n1C2)COC(=O)C3(O)CC (centres unmarked) [Compound 18-(b), succinic acid bis(7-ethylcamptothecin-10-yl)ester] | 50 | remarkable anticancer activity | 
CCc1c2c(nc3ccc(OC(=O)NCCCCNC(=O)Oc4ccc5nc6c(c(CC)c5c4)Cn4c-6cc5c(c4=O)COC(=O)C5(O)CC)cc13)-c1cc3c(c(=O)n1C2)COC(=O)C3(O)CC (centres unmarked) [Compound 18-(c), butylene bis(7-ethylcamptothecin-10-yl)amide] | 50 | remarkable anticancer activity | 
CCc1c2c(nc3ccc(OC/C=C/COc4ccc5nc6c(c(CC)c5c4)Cn4c-6cc5c(c4=O)COC(=O)C5(O)CC)cc13)-c1cc3c(c(=O)n1C2)COC(=O)C3(O)CC (centres unmarked) [Compound 18-(d), bis(7-ethylcamptothecin-10-oxy)2-buten ether] |  |  | anticancer activity against HepG2 ([3]; 0.1, 1, 10 μM in terms of SN-38, FIG. 5): almost disappeared; aging effect on anticancer activity against HepG2 ([3]; 0.1, 1, 10 μM in terms of SN-38, aged sample, FIG. 5): little
CCCCC(=O)O[C@]1(C(=O)COC(=O)CCC(=O)OCC(=O)[C@@]2(OC(=O)CCCC)[C@@H](C)C[C@H]3[C@@H]4CCC5=CC(=O)C=C[C@]5(C)[C@@]4(F)[C@@H](O)C[C@@]32C)[C@@H](C)C[C@H]2[C@@H]3CCC4=CC(=O)C=C[C@]4(C)[C@@]3(F)[C@@H](O)C[C@@]21C [Compound 19-(b)] | 150 |  | 
CCc1c2c(nc3ccc(O)cc13)-c1cc3c(c(=O)n1C2)COC(=O)[C@]3(O)CC [SN-38, 10-hydroxy-7-ethylcamptothecin, reference compound] |  | remarkable anticancer activity | water-solubility [1]: extremely poor
CCc1c2c(nc3ccc(OC(=O)N4CCC(N5CCCCC5)CC4)cc13)-c1cc3c(c(=O)n1C2)COC(=O)[C@]3(O)CC [irinotecan, 7-ethyl-10-[4-(1-piperidino)-1-piperidino]carbonyloxycamptothecin, reference compound] |  | almost no anticancer activity | 
